80 targets from the supplement of paper PMC6411743 can be followed below.

Compound in the experiment: Nc1ncnc2c1ncn2[C@@H]1O[C@H](COP(=O)(O)OP(=O)(O)OP(=O)(O)O)[C@@H](O)[C@H]1O [adenosine triphosphate]
The experiment is described as follows: pEC50 of ATP-induced change in protein thermal stability (2D-TPP). The protocol: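 2D thermal proteome profiling in mechanically disrupted Jurkat crude lysate. Lysate was treated 10 min at room temperature with Na-ATP (0, 0.005, 0.05, 0.5, 2 mM), heated to 12 temperatures (42-63.9 °C) for 3 min, and soluble protein was quantified by TMT10 LC-MS/MS. pEC50 is the median over replicates of dose-response fits at the lowest temperature showing a fold change of at least 1.5 (FDR-controlled hits).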

UniProt Q9Y223, sequence (Q9Y223 whole entry): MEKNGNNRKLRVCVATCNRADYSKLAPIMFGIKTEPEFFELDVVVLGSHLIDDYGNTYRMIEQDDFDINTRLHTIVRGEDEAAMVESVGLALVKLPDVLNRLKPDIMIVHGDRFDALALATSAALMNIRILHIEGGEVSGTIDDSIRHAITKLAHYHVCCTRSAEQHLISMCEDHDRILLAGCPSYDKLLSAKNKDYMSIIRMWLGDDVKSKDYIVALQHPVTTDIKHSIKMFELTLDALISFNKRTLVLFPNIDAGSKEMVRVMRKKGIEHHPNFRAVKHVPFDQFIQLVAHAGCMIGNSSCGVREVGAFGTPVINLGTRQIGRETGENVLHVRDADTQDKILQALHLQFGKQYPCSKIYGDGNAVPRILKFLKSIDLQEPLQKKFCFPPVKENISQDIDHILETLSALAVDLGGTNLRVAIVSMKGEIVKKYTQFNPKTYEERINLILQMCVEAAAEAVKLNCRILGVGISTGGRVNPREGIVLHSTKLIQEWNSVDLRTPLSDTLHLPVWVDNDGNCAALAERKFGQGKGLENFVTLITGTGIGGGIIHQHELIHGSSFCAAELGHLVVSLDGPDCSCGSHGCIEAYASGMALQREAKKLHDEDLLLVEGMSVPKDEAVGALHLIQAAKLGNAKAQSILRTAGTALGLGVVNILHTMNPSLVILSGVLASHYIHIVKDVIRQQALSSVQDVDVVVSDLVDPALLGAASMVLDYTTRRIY
UniProt P11413, sequence (P11413 whole entry): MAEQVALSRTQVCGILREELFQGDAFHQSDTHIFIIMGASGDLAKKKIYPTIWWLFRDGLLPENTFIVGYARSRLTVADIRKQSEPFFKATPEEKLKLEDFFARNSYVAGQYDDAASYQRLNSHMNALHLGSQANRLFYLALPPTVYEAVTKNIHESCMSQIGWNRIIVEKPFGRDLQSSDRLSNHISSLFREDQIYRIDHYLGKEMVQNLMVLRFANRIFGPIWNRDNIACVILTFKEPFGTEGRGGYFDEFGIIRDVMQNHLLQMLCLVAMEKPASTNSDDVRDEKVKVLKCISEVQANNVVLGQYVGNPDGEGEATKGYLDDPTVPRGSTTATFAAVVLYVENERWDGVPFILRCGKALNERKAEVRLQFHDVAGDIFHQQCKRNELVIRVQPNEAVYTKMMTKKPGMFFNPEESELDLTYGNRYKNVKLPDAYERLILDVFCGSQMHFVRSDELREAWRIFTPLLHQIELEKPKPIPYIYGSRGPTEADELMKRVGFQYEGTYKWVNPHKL
UniProt Q9NUQ9, sequence (Q9NUQ9 whole entry): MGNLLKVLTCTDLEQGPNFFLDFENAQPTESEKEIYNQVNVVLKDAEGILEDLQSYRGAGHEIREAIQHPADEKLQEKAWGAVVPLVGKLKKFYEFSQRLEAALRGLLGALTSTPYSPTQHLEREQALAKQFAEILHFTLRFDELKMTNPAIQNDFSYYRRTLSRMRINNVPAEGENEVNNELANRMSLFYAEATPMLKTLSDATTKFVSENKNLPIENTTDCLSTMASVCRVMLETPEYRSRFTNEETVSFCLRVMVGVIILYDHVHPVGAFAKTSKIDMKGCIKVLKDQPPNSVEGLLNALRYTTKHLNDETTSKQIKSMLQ
UniProt P56937, sequence (P56937 whole entry): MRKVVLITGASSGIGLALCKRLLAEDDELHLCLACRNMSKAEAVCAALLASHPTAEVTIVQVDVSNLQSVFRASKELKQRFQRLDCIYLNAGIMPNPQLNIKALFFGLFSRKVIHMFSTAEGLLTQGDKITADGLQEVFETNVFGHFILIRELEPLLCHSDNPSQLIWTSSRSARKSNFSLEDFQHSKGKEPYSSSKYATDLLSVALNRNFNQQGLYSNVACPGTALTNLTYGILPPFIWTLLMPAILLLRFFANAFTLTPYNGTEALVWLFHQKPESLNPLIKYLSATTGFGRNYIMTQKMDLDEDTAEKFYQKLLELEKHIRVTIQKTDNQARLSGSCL
UniProt Q9HC35, sequence (Q9HC35 whole entry): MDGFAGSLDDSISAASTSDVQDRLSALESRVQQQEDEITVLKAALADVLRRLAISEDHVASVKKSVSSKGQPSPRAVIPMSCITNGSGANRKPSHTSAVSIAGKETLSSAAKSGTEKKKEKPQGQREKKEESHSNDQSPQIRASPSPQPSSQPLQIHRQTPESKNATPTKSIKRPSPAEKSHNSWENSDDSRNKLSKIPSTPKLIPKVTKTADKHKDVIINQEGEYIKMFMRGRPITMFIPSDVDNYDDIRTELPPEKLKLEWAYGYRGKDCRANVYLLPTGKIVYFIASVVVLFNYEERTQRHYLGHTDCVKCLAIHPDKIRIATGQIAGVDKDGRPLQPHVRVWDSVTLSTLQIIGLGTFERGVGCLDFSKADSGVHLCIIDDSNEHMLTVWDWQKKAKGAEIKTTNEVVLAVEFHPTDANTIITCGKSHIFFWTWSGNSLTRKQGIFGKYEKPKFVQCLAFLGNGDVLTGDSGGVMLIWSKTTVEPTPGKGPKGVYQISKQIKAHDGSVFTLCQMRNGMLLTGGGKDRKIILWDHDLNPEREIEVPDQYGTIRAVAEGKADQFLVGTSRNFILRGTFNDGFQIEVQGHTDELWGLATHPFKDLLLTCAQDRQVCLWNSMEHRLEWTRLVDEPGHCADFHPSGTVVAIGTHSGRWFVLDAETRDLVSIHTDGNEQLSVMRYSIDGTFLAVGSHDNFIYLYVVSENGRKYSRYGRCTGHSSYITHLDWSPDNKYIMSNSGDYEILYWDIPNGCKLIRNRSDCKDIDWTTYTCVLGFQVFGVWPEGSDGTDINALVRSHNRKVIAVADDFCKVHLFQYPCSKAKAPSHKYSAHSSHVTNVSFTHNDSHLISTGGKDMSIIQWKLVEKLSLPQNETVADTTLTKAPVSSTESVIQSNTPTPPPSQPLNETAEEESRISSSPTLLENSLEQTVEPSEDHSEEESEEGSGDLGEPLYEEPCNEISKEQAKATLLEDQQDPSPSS
UniProt Q12849, sequence (Q12849 whole entry): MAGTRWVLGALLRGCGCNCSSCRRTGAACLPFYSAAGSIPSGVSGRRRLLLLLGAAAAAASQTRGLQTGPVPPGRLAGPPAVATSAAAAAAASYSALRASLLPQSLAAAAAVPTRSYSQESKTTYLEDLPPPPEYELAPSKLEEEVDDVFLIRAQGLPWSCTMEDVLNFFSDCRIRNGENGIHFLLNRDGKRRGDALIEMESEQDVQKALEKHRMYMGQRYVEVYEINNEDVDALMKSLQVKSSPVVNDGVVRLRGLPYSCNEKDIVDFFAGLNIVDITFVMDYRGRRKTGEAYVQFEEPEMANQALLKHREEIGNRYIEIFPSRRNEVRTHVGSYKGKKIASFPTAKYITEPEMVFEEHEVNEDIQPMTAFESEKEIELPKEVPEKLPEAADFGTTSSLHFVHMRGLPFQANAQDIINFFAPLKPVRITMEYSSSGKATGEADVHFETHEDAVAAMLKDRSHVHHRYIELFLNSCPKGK
UniProt P07814, sequence (P07814 whole entry): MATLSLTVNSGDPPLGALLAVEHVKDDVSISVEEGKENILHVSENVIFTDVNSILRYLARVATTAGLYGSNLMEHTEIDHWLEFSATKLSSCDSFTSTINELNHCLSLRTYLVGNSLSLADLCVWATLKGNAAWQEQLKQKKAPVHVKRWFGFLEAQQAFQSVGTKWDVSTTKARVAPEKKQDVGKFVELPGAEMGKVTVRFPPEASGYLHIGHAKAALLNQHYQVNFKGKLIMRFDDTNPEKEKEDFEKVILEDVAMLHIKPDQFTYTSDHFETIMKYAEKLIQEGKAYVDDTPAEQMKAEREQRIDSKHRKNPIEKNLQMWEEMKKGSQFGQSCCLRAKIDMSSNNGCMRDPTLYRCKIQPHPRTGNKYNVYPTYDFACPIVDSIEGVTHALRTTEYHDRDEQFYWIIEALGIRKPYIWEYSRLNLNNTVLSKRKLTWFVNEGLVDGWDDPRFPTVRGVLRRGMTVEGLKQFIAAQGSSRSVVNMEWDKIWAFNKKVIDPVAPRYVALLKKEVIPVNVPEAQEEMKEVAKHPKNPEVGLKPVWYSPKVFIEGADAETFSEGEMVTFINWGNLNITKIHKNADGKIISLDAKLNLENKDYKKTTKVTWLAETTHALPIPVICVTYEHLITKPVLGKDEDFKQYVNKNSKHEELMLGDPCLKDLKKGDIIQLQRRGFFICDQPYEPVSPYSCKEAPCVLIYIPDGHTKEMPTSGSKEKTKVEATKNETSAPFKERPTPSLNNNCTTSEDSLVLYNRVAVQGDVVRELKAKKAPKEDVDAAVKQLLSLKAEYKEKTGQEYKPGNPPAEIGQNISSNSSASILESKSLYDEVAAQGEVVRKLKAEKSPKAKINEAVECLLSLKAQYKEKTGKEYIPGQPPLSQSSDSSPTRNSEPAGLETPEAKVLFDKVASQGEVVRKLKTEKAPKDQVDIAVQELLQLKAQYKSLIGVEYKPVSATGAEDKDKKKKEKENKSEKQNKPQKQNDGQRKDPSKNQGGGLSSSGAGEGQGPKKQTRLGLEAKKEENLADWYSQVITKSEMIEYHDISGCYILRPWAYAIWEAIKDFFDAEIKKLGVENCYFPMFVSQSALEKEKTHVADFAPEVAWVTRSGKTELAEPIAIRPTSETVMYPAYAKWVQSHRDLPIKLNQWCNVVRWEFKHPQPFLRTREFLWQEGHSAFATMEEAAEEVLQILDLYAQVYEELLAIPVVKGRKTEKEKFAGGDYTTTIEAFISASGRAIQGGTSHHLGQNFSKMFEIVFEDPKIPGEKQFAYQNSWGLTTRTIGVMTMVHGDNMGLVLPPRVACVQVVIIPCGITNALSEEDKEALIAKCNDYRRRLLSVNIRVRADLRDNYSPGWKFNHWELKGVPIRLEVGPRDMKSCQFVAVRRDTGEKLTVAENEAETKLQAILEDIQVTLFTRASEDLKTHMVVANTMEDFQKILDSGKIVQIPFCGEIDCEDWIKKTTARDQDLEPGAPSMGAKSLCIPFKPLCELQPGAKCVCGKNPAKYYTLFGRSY
UniProt Q96A26, sequence (Q96A26 whole entry): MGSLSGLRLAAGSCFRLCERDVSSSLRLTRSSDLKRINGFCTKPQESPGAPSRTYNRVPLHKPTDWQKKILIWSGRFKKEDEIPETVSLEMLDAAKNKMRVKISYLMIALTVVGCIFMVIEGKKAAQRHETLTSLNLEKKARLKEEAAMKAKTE

As to “EML4 (effect direction: destabilized) (UniProt Q9HC35)”, the pEC50 (as a rule, −log10 of the EC50, conventionally taken in molar units) worked out at 2.93.
For “ENO1 (effect direction: destabilized) (UniProt P06733)” the value was below 2.7.
The figure for “ENO2 (effect direction: destabilized) (UniProt P09104)” is 2.99; for “ENO3 (effect direction: destabilized) (UniProt P13929)” it is below 2.7; for “EPRS (effect direction: destabilized) (UniProt P07814)” it is 4.04.
Regarding “EPS15L1 (effect direction: destabilized) (UniProt Q9UBC2)”, the negative logarithm of the EC50 (pEC50) worked out at 2.94.
Regarding “ETFA (effect direction: stabilized) (UniProt P13804)”, the pEC50 is below 2.7.
With “EXOC2 (effect direction: stabilized) (UniProt Q96KP1)”, the pEC50 was found to be 3.
The figure for “FAF1 (effect direction: stabilized) (UniProt Q9UNN5)” is 2.79.
As to “FAHD2A (effect direction: destabilized) (UniProt Q96GK7)”, the pEC50 is below 2.7.
Turning to “FAM20B (effect direction: stabilized) (UniProt O75063)”, the pEC50 was 3.12.
For “FAM49B (effect direction: stabilized) (UniProt Q9NUQ9)” the value was 2.78; for “FAM118A (effect direction: stabilized) (UniProt Q9NWS6)”, 3.19.
With “FAM162A (effect direction: destabilized) (UniProt Q96A26)”, the negative-log EC50 (pEC50) came out at 3.13.
For “FARSA (effect direction: stabilized) (UniProt Q9Y285)” the value was 3.47; for “FARSB (effect direction: stabilized) (UniProt Q9NSD9)”, 3.16.
For “FBL (effect direction: destabilized) (UniProt P22087)” the value was 3.44.
The figure for “FDXR (effect direction: stabilized) (UniProt P22570)” is 3.26; for “FH (effect direction: stabilized) (UniProt P07954)” it is 3.08; for “FIGNL1 (effect direction: stabilized) (UniProt Q6PIW4)” it is 3.82.
On to “FKBP4 (effect direction: stabilized) (UniProt Q02790)”, for which the pEC50 is below 2.7.
As for “FKBP5 (effect direction: stabilized) (UniProt Q13451)”, the pEC50 is below 2.7.
As to “FKBP8 (effect direction: stabilized) (UniProt Q14318)”, the pEC50 is 3.36.
As to “FN3KRP (effect direction: stabilized) (UniProt Q9HA64)”, the pEC50 worked out at 4.17.
For “FNTA (effect direction: stabilized) (UniProt P49354)” the value was 3.22; for “FOXK1 (effect direction: stabilized) (UniProt P85037)”, 3.36.
For “FOXK2 (effect direction: stabilized) (UniProt Q01167)” the value was 3.76.
For “FTSJ3 (effect direction: destabilized) (UniProt Q8IY81)” the value was 3.22; for “FUCA1 (effect direction: destabilized) (UniProt P04066)”, above 5.3.
Take “G6PD (effect direction: stabilized) (UniProt P11413)”: the pEC50 was below 2.7.
For “GAPDH (effect direction: stabilized) (UniProt P04406)” the value was below 2.7; for “GART (effect direction: stabilized) (UniProt P22102)”, 4.88.
The figure for “GGPS1 (effect direction: destabilized) (UniProt O95749)” is 2.94.
On to “GLA (effect direction: stabilized) (UniProt P06280)”, for which the pEC50 amounted to 3.03.
With “GLB1 (effect direction: stabilized) (UniProt P16278)”, the pEC50 is 3.35.
The figure for “GLO1 (effect direction: destabilized) (UniProt Q04760)” is below 2.7; for “GLOD4 (effect direction: stabilized) (UniProt Q9HC38)” it is below 2.7; for “GLRX3 (effect direction: stabilized) (UniProt O76003)” it is below 2.7.
On to “GLUD1 (effect direction: stabilized) (UniProt P00367)”, for which the pEC50 was found to be 4.21.
The figure for “GNAS (effect direction: stabilized) (UniProt P63092)” is below 2.7.
Take “GNE (effect direction: stabilized) (UniProt Q9Y223)”: the pEC50 amounted to 3.16.
The figure for “GPD1L (effect direction: stabilized) (UniProt Q8N335)” is 3.09.
The figure for “GPKOW (effect direction: stabilized) (UniProt Q92917)” is 3.19.
Consider “GPN1 (effect direction: destabilized) (UniProt Q9HCN4)”, for which the pEC50 was 2.83.
For “GPN3 (effect direction: destabilized) (UniProt Q9UHW5)” the value was 2.74.
For “GPS1 (effect direction: stabilized) (UniProt Q13098)” the value was below 2.7.
The figure for “GRAMD4 (effect direction: stabilized) (UniProt Q6IC98)” is 3.13; for “GRAP (effect direction: stabilized) (UniProt Q13588)” it is 3.54.
With “GRPEL1 (effect direction: destabilized) (UniProt Q9HAV7)”, the pEC50 amounted to 4.04.
For “GRSF1 (effect direction: stabilized) (UniProt Q12849)” the value was 2.83; for “GSN (effect direction: stabilized) (UniProt P06396)”, 2.94.
For “GSS (effect direction: stabilized) (UniProt P48637)” the value was 3.56.
For “GSTO1 (effect direction: stabilized) (UniProt P78417)” the value was below 2.7; for “GTF2B (effect direction: stabilized) (UniProt Q00403)”, 3.26; for “GTF2I (effect direction: stabilized) (UniProt P78347)”, 3.28.
With “GTF3A (effect direction: stabilized) (UniProt Q92664)”, the negative-log EC50 (pEC50) is 3.03.
For “GTPBP1 (effect direction: stabilized) (UniProt O00178)”, the pEC50 came out at 3.28.
For “GYS1 (effect direction: destabilized) (UniProt P13807)” the value was 5.03; for “H1FX (effect direction: destabilized) (UniProt Q92522)”, below 2.7.
For “HEATR3 (effect direction: stabilized) (UniProt Q7Z4Q2)”, the pEC50 was determined as 2.83.
For “HEXA (effect direction: stabilized) (UniProt P06865)” the value was 3.22.
The figure for “HEXB (effect direction: stabilized) (UniProt P07686)” is 3.01; for “HIST1H1B (effect direction: destabilized) (UniProt P16401)” it is below 2.7; for “HIST1H1C (effect direction: destabilized) (UniProt P16403)” it is 4.05.
The figure for “HLTF (effect direction: stabilized) (UniProt Q14527)” is 4.11; for “HMGN4 (effect direction: stabilized) (UniProt O00479)” it is 3.52; for “HNRNPF (effect direction: stabilized) (UniProt P52597)” it is below 2.7.
For “HNRNPH1 (effect direction: stabilized) (UniProt P31943)”, the negative logarithm of the EC50 (pEC50) amounted to 2.93.
The figure for “HNRNPL (effect direction: stabilized) (UniProt P14866)” is 3.23; for “HNRNPR (effect direction: stabilized) (UniProt O43390)” it is 3.04.
For “HNRNPU (effect direction: stabilized) (UniProt Q00839)” the value was 2.9; for “HNRNPUL2 (effect direction: stabilized) (UniProt Q1KMD3)”, 3.39.
For “HSD17B7 (effect direction: stabilized) (UniProt P56937)” the value was 3.22; for “HSD17B10 (effect direction: stabilized) (UniProt Q99714)”, 3.24; for “HSP90AA1 (effect direction: stabilized) (UniProt P07900)”, above 5.3.
“HSP90AB1 (effect direction: stabilized) (UniProt P08238)”: the pEC50 was below 2.7.
The figure for “HSPA4 (effect direction: stabilized) (UniProt P34932)” is below 2.7; for “HSPA8 (effect direction: stabilized) (UniProt P11142)” it is 4.09; for “HSPA9 (effect direction: stabilized) (UniProt P38646)” it is 3.94.
Turning to “HSPA14 (effect direction: stabilized) (UniProt Q0VDF9)”, the pEC50 worked out at 2.8.
